Earlier results in patent US20070219127A1, “CYCLOSPORIN A COMPOSITIONS” (priority 2006, published 2007).

Structure (SMILES) | systemically administered elimination half-life
FC1(F)C(F)(F)C(F)(F)C2(F)C(F)(F)C(F)(F)C(F)(F)C(F)(F)C2(F)C1(F)F (centres unmarked) [PFD, Perfluoro (decahydronaphthalene)] | about 7 days
FC1(F)C(F)(F)C(F)(F)C2(F)C(F)(C1(F)F)C(F)(F)C(F)(F)C1(F)C(F)(F)C(F)(F)C(F)(F)C(F)(F)C12F (centres unmarked) [PPP, perfluoroperhydrophenanthrene] | about 7 days
